Consider three compounds from ChEMBL document CHEMBL5050848, “Kif18a inhibitors” (2020).

In the test the target is T1, Kinesin-like protein KIF18A (Homo sapiens, UniProt Q8NI77).
T1 sequence (Q8NI77 whole entry): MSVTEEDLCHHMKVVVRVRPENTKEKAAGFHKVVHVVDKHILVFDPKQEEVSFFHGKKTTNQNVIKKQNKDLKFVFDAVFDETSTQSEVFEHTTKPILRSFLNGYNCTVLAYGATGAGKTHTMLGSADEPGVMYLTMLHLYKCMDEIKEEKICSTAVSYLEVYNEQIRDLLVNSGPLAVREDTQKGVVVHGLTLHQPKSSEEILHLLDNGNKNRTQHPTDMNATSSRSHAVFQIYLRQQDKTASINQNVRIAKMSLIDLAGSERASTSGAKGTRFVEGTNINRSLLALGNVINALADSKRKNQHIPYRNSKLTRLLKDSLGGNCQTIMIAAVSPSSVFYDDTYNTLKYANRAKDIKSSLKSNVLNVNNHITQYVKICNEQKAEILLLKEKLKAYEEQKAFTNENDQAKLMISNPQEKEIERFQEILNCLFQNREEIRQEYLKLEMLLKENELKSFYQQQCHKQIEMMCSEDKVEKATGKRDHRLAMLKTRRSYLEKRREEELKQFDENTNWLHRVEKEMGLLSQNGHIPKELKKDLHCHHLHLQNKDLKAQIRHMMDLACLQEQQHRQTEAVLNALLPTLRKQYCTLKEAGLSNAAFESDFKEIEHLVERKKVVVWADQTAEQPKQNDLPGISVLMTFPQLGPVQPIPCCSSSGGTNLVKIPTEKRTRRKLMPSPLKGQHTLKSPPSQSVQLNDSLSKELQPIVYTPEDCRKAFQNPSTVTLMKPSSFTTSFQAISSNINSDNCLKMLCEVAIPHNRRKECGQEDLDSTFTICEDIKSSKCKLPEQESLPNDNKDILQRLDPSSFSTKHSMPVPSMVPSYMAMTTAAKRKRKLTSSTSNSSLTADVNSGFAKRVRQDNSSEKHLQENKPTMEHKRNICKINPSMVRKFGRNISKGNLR
Description: Inhibition of recombinant His-tagged human KIF18A (1 to 467 residues) expressed in baculovirus expression system assessed as inhibition of microtubule-stimulated ATPase activity preincubated for 15 mins followed by ATP addition and further incubated for 15 mins and measured after 40 mins by ADP-Glo reagent based assay.
As for `Cc1cc(NC(=O)c2ccc(NS(=O)(=O)CCO)cc2N2CCC3(CC2)CC3)nc(N2CC(F)(F)C2)c1`, the IC50 (in general, the concentration at which inhibition is half-maximal) stood at 24 nM.

Consider `C[C@@H]1CN(c2cccc(NC(=O)c3ccc(NS(=O)(=O)CC(F)F)cc3N3CCC4(CC3)CC4)n2)CCO1`, for which the IC50 is 67 nM.

In the case of `O=C(Nc1cccc(OC(F)F)n1)c1ccc(NS(=O)(=O)CCO)cc1N1CCC2(CC1)CC2`, the IC50 is 45 nM.
